Test results from ChEMBL document CHEMBL5543126, “Combinatorial Ubiquitination REal-time PROteolysis (CURE-PROs): A Modular Platform for Generating Reversible, Self-Assembling Bifunctional Targeted Degraders” (J Med Chem, 2024).
Each block holds one molecule with its values, some of them ahead of it. The source made the active and inactive calls. No cut-off for these calls is given here.

Assays:
[1] = molecular target: T1, von Hippel-Lindau disease tumor suppressor/Bromodomain-containing protein 4 (Homo sapiens, UniProt O60885+P40337); experiment: (§1) PROTAC activity at BRD4/VHL in human MCF7 cells assessed as induction of BRD4 degradation by measuring residual activity at 1 uM incubated for 24 hrs in presence of 1 uM VHL based ligand (2S,4R)-1-((S)-2-(2,3-dihydroxybenzamido)-3,3-dimethylbutanoyl)-4-hydroxy-N-(4-(4-methylthiazol-5-yl)benzyl)pyrrolidine-2-carboxamide by Western blot based Combinatorial Ubiquitination Real-time PROteolysis analysis; format: cell-based
T1 sequence (P40337 whole entry, looked up, other chains not shown): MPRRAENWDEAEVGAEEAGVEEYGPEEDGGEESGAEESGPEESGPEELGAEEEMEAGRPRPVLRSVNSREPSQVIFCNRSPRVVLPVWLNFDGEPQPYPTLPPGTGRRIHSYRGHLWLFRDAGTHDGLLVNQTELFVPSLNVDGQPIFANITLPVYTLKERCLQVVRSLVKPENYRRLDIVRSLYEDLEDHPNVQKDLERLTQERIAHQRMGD

[2] = molecular target: T1, von Hippel-Lindau disease tumor suppressor/Bromodomain-containing protein 4; experiment: (§2) PROTAC activity at VHL/BRD4 in HEK293 cells assessed as induction of BRD4 degradation by measuring degradation rate at 3 uM measured every 15 mins for 24 hrs in presence of VHL based ligand (2S,4R)-1-((S)-2-(2,3-dihydroxybenzamido)-3,3-dimethylbutanoyl)-4-hydroxy-N-(4-(4-methylthiazol-5-yl)benzyl)pyrrolidine-2-carboxamide by HiBiT based Combinatorial Ubiquitination Real-time PROteolysis analysis; format: cell-based
[3] = molecular target: T1, von Hippel-Lindau disease tumor suppressor/Bromodomain-containing protein 4; experiment: as §1, with “at 10” for “at 1”, “of 3” for “of 1”; format: cell-based
[4] = molecular target: T1, von Hippel-Lindau disease tumor suppressor/Bromodomain-containing protein 4; experiment: as §1, with “at 3” for “at 1”, “of 10” for “of 1”; format: cell-based
[5] = molecular target: T1, von Hippel-Lindau disease tumor suppressor/Bromodomain-containing protein 4; experiment: as §1, with “at VHL/BRD4” for “at BRD4/VHL”, “degradation” for “degradation by measuring residual activity”, “at 10” for “at 1”, “uM measured at 4” for “uM incubated for 24”, “of” for “of 1 uM”; format: cell-based
[6] = molecular target: T1, von Hippel-Lindau disease tumor suppressor/Bromodomain-containing protein 4; experiment: as §1, with “30 nM” for “1 uM”, “of” for “of 1 uM”; format: cell-based
[7] = molecular target: T1, von Hippel-Lindau disease tumor suppressor/Bromodomain-containing protein 4; experiment: as §1, with “of” for “of 1 uM”; format: cell-based
[8] = molecular target: T1, von Hippel-Lindau disease tumor suppressor/Bromodomain-containing protein 4; experiment: as §1, with “at 300 nM” for “at 1 uM”; format: cell-based
[9] = molecular target: T1, von Hippel-Lindau disease tumor suppressor/Bromodomain-containing protein 4; experiment: PROTAC activity at BRD4/VHL in human MCF7 cells assessed as reduction in BRD4 level incubated for 24 hrs in presence of BRD4 based ligand ((4S)-6-(4-chlorophenyl)-4-(2-(ethylamino)-2-oxoethyl)-1-methyl4Hbenzo[f][1,2,4]triazolo [4,3-a][1,4]diazepin-8-yl)boronic acid by Western blot based Combinatorial Ubiquitination Real-time PROteolysis analysis; format: cell-based
[10] = molecular target: T1, von Hippel-Lindau disease tumor suppressor/Bromodomain-containing protein 4; experiment: as §2, with “measuring maximal level of” for “measuring”, “degradation” for “degradation rate”, “at 1” for “at 3”; format: cell-based
[11] = molecular target: T1, von Hippel-Lindau disease tumor suppressor/Bromodomain-containing protein 4; experiment: as §1, with “at 3” for “at 1”, “of” for “of 1 uM”; format: cell-based
[12] = molecular target: T1, von Hippel-Lindau disease tumor suppressor/Bromodomain-containing protein 4; experiment: as §1, with “at 3” for “at 1”; format: cell-based
[13] = molecular target: T1, von Hippel-Lindau disease tumor suppressor/Bromodomain-containing protein 4; experiment: as §1, with “at 30 nM” for “at 1 uM”, “of 100 nM” for “of 1 uM”; format: cell-based
[14] = molecular target: T1, von Hippel-Lindau disease tumor suppressor/Bromodomain-containing protein 4; experiment: as §1, with “at 3” for “at 1”, “of 300 nM” for “of 1 uM”; format: cell-based
[15] = molecular target: T1, von Hippel-Lindau disease tumor suppressor/Bromodomain-containing protein 4; experiment: (§3) PROTAC activity at BRD4/VHL in human MCF7 cells assessed as induction of BRD4 degradation by measuring residual activity at 1 uM incubated for 24 hrs in presence of 3 uM BRD4 based ligand ((4S)-6-(4-chlorophenyl)-4-(2-(ethylamino)-2-oxoethyl)-1-methyl4Hbenzo[f][1,2,4]triazolo [4,3-a][1,4]diazepin-8-yl)boronic acid by Western blot based Combinatorial Ubiquitination Real-time PROteolysis analysis; format: cell-based
[16] = molecular target: T1, von Hippel-Lindau disease tumor suppressor/Bromodomain-containing protein 4; experiment: as §3, with “30 nM” for “1 uM”, “of” for “of 3 uM”; format: cell-based
[17] = test system: MV4-11; experiment: Antitumor activity against human MV4-11 cells xenografted in nude mouse assessed as reduction in BRD4 level in tumor at 10 mg/kg, ip administered for 4 hrs and measured at 9 to 12 hrs in presence of BRD4 based ligand ((4S)-6-(4-chlorophenyl)-4-(2-(ethylamino)-2-oxoethyl)-1-methyl4Hbenzo[f][1,2,4]triazolo [4,3-a][1,4]diazepin-8-yl)boronic acid; format: functional, organism-based; conditions: time 9-12 hrs
[18] = molecular target: T1, von Hippel-Lindau disease tumor suppressor/Bromodomain-containing protein 4; experiment: (§4) PROTAC activity at VHL/BRD4 in HEK293 cells assessed as induction of BRD4 degradation by measuring maximal level of degradation at 10 uM measured every 15 mins for 24 hrs in presence of BRD4 based ligand ((4S)-6-(4-chlorophenyl)-4-(2-(ethylamino)-2-oxoethyl)-1-methyl4Hbenzo[f][1,2,4]triazolo [4,3-a][1,4]diazepin-8-yl)boronic acid by HiBiT based Combinatorial Ubiquitination Real-time PROteolysis analysis; format: cell-based
[19] = molecular target: T1, von Hippel-Lindau disease tumor suppressor/Bromodomain-containing protein 4; experiment: as §3, with “30 nM” for “1 uM”, “300 nM” for “3 uM”; format: cell-based
[20] = molecular target: T1, von Hippel-Lindau disease tumor suppressor/Bromodomain-containing protein 4; experiment: as §3, with “300 nM” for “3 uM”; format: cell-based
[21] = molecular target: T1, von Hippel-Lindau disease tumor suppressor/Bromodomain-containing protein 4; experiment: as §4, with “Tmax” for “maximal level of degradation”; format: cell-based
[22] = molecular target: T1, von Hippel-Lindau disease tumor suppressor/Bromodomain-containing protein 4; experiment: as §4, with “0.3” for “10”; format: cell-based
[23] = molecular target: T1, von Hippel-Lindau disease tumor suppressor/Bromodomain-containing protein 4; experiment: as §4, with “Tmax” for “maximal level of degradation”, “0.3” for “10”; format: cell-based
[24] = molecular target: T1, von Hippel-Lindau disease tumor suppressor/Bromodomain-containing protein 4; experiment: as §3, with “of 10” for “of 3”; format: cell-based

Compound: CCNC(=O)C[C@@H]1N=C(c2ccc(Cl)cc2)c2cc(B(O)O)ccc2-n2c(C)nnc21
Activity [1]: 35%
Activity [2]: 0.908 h⁻¹
Activity [3]: 7%
Activity [4]: 16%
Activity [5]: 100%
Activity [6]: 91%
Activity [7]: 64%
Activity [8]: 38%
Activity [9]: inactive
Emax [10]: 80%
Activity [11]: 73%
Activity [12]: 32%
Activity [13]: 89%
Activity [14]: 39%

Activity [15]: 22%
Activity [16]: 91%
Emax [18]: 96%
Activity [19]: 104%
Activity [20]: 48%
Tmax [21]: 22.2 h
Emax [22]: 47%
Tmax [23]: 7.75 h
Activity [24]: 20%
Compound: Cc1ncsc1-c1ccc(CNC(=O)[C@@H]2C[C@@H](O)CN2C(=O)[C@@H](NC(=O)c2cccc(O)c2O)C(C)(C)C)cc1
Activity [17]: Active
